Patent US20060003993A1, “Benzotriazepnes as gastrin and cholecystokinin receptor ligands” (James Black Foundation Limited, priority 2001, published 2006)

Columns and labels:
gastrin (CCK2) receptors = target: T1, gastrin (CCK2) receptors (Rattus norvegicus, UniProt P30553); assay: immature rat stomach assay, gastrin (CCK2) antagonist activity; format: cell-based; conditions: pentagastrin dose-response curves, acid secretion
T1 construct: The stomach was excised and flushed with ca. 1 ml of unbuffered physiological saline solution; from tissue; host or cells: isolated lumen-perfused stomach of immature rats (ca. 21 days old)
T1 sequence (P30553 1-452): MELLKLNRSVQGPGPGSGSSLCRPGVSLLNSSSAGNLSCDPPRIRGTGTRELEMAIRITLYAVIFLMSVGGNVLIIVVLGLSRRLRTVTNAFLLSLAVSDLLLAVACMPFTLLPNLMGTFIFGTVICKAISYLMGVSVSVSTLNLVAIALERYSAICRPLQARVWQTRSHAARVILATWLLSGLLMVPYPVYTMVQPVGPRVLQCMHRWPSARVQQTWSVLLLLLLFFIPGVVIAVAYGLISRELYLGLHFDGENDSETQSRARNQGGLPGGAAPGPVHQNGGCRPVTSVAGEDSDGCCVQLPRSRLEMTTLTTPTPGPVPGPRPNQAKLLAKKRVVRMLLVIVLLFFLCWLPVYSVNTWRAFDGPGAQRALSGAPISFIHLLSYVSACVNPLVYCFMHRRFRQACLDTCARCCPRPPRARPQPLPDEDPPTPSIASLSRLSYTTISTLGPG
Procedure: The compounds of the examples were tested for gastrin (CCK2) antagonist activity in an immature rat stomach assay. The procedure was as follows:
The oesophagus of immature rats (33-50 g, ca. 21 days old) was ligated at the level of the cardiac sphincter and the duodenal sphincter was cannulated. The stomach was excised and flushed with ca. 1 ml of unbuffered physiological saline solution. The fundus was punctured and cannulated. A further 4-5 ml of unbuffered solution was flushed through the stomach to ensure the preparation was not leaking. […] The stomach was continuously perfused at a rate of 1 ml min^−1 with unbuffered solution gassed with 100% O2 with the perfusate passing over an internally referenced pH-electrode fixed 12 cm above the stomach.
After 120 min of stabilisation the drugs were added directly to the serosal solution in the organ bath and after a further 60 min cumulative pentagastrin dose-response curves were started.

[1] = target: T2, human gastrin (CCK2) receptors (Homo sapiens, UniProt P32239); assay: [125I]-BH-CCK-8S competition binding at human CCK2 receptors cloned into NIH3T3 cells; conditions: hCCK2 receptor, NIH3T3 clone 7 membranes, [125I]-BH-CCK-8S 200 pM, 150 min at 21° C.
T2 construct: amplified by PCR (polymerase chain reaction) from the start codon to the stop codon; expressed in transfected cells
T2 sequence (P32239 1-447): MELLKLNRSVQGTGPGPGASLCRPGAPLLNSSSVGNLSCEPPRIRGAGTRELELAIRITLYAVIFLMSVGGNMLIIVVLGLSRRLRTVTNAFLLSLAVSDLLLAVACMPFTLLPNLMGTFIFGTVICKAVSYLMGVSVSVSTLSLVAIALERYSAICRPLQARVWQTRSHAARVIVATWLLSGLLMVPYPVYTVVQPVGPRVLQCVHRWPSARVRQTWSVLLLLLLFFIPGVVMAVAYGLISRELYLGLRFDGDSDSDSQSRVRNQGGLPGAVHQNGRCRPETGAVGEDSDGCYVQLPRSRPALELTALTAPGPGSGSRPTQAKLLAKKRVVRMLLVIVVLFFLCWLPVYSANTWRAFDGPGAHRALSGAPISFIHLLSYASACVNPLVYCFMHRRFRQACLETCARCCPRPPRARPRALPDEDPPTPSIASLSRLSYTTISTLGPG
Source text: Step a: Subcloning of IMAGE Clone Encoding the Human CCK2R into a Mammalian Expression Vector
I.M.A.G.E. (Integrated Molecular Analysis of Genomes and their Expression) clone number 3504160 (Lennon et al. Genomics 33, 151-152 (1996)) was purchased from the HGMP (Human Genome Mapping Project, Cambridge). The cDNA encoding the mRNA for the human CCK2R, corresponding to accession number BC000740, was present in vector pOTB7 in host cell DH10B. The cells, initially streaked on to LB-Agar plates containing 20 μg/ml chloramphenicol, were then grown in LB containing 20 μg/ml chloramphenicol with shaking at 37° C. according to standard techniques (Current Protocols in Molecular Biology, Wiley). DNA was prepared using the QIAGEN® EndoFree™ plasmid Maxi kit (Qiagen Ltd.) according to the manufacturer's protocol. The DNA was then amplified by PCR (polymerase chain reaction) from the start codon to the stop codon using primers containing restriction sites, Eco R1 and Xba I respectively, to facilitate uni-directional cloning. […]
The PCR product was purified using the QIAGEN® MinElute™ PCR purification kit, according to the manufacturer's instructions. […] The digested DNA bands of the correct size, analysed by ethidium bromide stained agarose/TBE gels, were excised and purified using QIAGEN@ MinElute™ gel extraction kit, according to the manufacturer's instructions. […]

| SMILES | pKB rat stomach (gastrin (CCK2) receptors) | pKi ± s.e.mean [1] |
| --- | --- | --- |
| CNc1cc(NC(=O)CN2N=C(C3CCCCC3)c3ccccc3N(CC(O)C(C)(C)C)C2=O)cc(C(=O)OC)c1 (stereo not drawn) [Example 78] | 6.49 ± 0.33 |  |
| Cc1cccc2c1C(C1CCCCC1)=NN(CC(=O)Nc1cccc(C(=O)O)c1)C(=O)N2CC(=O)C(C)(C)C [Example 114] | 7.45 ± 0.43 |  |
| Cc1cccc(NC(=O)N[C@@H]2N=C(c3ccccc3)c3ccccc3N(CC(=O)c3ccccc3C)C2=O)c1 [YM022] |  | 10.19 ± 0.03 |
